Assay results: the supplement of paper PMC10307832

Assays:
Assay in all cases: relative viability (nuclei count vs DMSO), 5 days (fraction); higher = more cells survive
Vandetanib + Olaparib = compound: COc1cc2/c(=N/c3ccc(Br)cc3F)nc[nH]c2cc1OCC1CCN(C)CC1 [Vandetanib] + O=C(c1cc(Cc2n[nH]c(=O)c3ccccc23)ccc1F)N1CCN(C(=O)C2CC2)CC1 [Olaparib] (partner 8 µM)
Outline: (§1)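 Five library-drug doses in √10 steps were combined with a fixed anchor-drug dose, or a single drug was given alone, by pin tool to lung cancer cell lines in 1536-well plates the day after seeding. Nuclei were stained and counted after 5 days. Relative viability is the nuclei count in treated wells over that in vehicle wells, taken as the median of duplicate plates.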

NVP-TAE684 + Foretinib = compound: COc1cc(N2CCC(N3CCN(C)CC3)CC2)ccc1Nc1ncc(Cl)c(Nc2ccccc2S(=O)(=O)C(C)C)n1 [NVP-TAE684] + COc1cc2c(Oc3ccc(NC(=O)C4(C(=O)Nc5ccc(F)cc5)CC4)cc3F)ccnc2cc1OCCCN1CCOCC1 [Foretinib] (partner 0.25 µM)
Outline: as §1

CUDC-101 + Crizotinib = compound: C#Cc1cccc(Nc2ncnc3cc(OC)c(OCCCCCCC(=O)NO)cc23)c1 [CUDC-101] + C[C@@H](Oc1cc(-c2cnn(C3CCNCC3)c2)cnc1N)c1c(Cl)ccc(F)c1Cl [Crizotinib] (partner 1 µM)
Outline: as §1

CUDC-101 + Bortezomib = compound: C#Cc1cccc(Nc2ncnc3cc(OC)c(OCCCCCCC(=O)NO)cc23)c1 [CUDC-101] + CC(C)C[C@H](NC(=O)[C@H](Cc1ccccc1)NC(=O)c1cnccn1)B(O)O [Bortezomib] (partner 0.002 µM)
Outline: as §1

Row | Cell Line | relative viability (Vandetanib + Olaparib; first compound 0.02 µM) | relative viability (Vandetanib + Olaparib; first compound 0.06325 µM) | relative viability (Vandetanib + Olaparib; first compound 0.2 µM) | relative viability (Vandetanib + Olaparib; first compound 0.6325 µM) | relative viability (Vandetanib + Olaparib; first compound 2 µM) | relative viability (NVP-TAE684 + Foretinib; first compound 0.2 µM) | relative viability (NVP-TAE684 + Foretinib; first compound 0.6325 µM) | relative viability (NVP-TAE684 + Foretinib; first compound 2 µM) | relative viability (CUDC-101 + Crizotinib; first compound 0.01 µM) | relative viability (CUDC-101 + Crizotinib; first compound 0.03162 µM) | relative viability (CUDC-101 + Crizotinib; first compound 0.1 µM) | relative viability (CUDC-101 + Crizotinib; first compound 0.3162 µM) | relative viability (CUDC-101 + Crizotinib; first compound 1 µM) | relative viability (CUDC-101 + Bortezomib; first compound 0.01 µM) | relative viability (CUDC-101 + Bortezomib; first compound 0.03162 µM) | relative viability (CUDC-101 + Bortezomib; first compound 0.1 µM) | relative viability (CUDC-101 + Bortezomib; first compound 0.3162 µM) | relative viability (CUDC-101 + Bortezomib; first compound 1 µM)
1 | 201T | 0.79 | 0.829 | 0.796 | 0.791 | 0.817 | 1.12 | 0.96 | 0.403 | 1 | 1.02 | 0.979 | 1.06 | 0.97 | 1.08 | 1.06 | 1.09 | 1.11 | 1.08
2 | A549 | 0.234 | 0.368 | 0.349 | 0.291 | 0.356 | 1.01 |  | 0.659 | 0.855 | 1 | 0.927 | 0.793 | 0.632 |  |  |  |  | 
3 | A-427 | 0.735 | 0.852 | 0.71 | 0.711 | 0.694 | 0.952 | 1.1 | 0.498 | 1.05 | 0.868 | 0.773 | 0.829 | 0.579 | 0.936 | 1.01 | 0.925 | 0.985 | 0.878
4 | ABC-1 | 0.538 | 0.617 | 0.774 | 0.904 | 0.726 | 1.07 | 0.742 | 0.349 | 0.941 | 0.906 | 0.742 | 0.44 | 0.33 | 0.243 | 0.247 | 0.269 | 0.24 | 0.18
5 | BEN | 1.21 | 1.02 | 1.03 | 1.04 | 1.08 | 0.736 | 0.509 | 0.555 | 1.04 | 0.772 | 0.933 | 0.809 | 0.579 | 0.882 | 0.759 | 0.779 | 0.75 | 0.543
6 | CAL-12T | 0.663 | 0.692 | 0.765 | 0.676 | 0.65 | 1.05 | 1.11 | 0.233 | 0.67 | 0.734 | 0.689 | 0.701 | 0.584 | 1.04 | 1.18 | 0.983 | 0.926 | 0.741
7 | COR-L23 | 0.327 | 0.343 | 0.379 | 0.379 | 0.347 | 0.967 | 0.996 | 0.332 | 0.677 | 0.674 | 0.626 | 0.555 | 0.295 | 1.1 | 0.967 | 0.957 | 0.895 | 0.647
8 | COR-L 105 | 0.639 | 0.606 | 0.756 | 0.67 | 0.811 | 1.02 | 1.4 | 0.897 | 0.724 | 0.825 | 0.725 | 0.433 | 0.267 | 0.833 | 0.963 | 0.639 | 0.611 | 0.176
9 | Calu-6 | 0.526 | 0.552 | 0.579 | 0.572 | 0.563 |  | 0.878 | 0.671 | 0.835 | 0.958 | 0.745 | 0.664 | 0.547 | 0.955 | 1.07 | 1.05 | 1.06 | 0.815
10 | ChaGo-K-1 | 0.415 | 0.427 | 0.161 | 0.411 | 0.438 | 0.943 | 0.818 | 0.538 | 1.17 | 1.14 | 1.12 | 1.2 | 0.924 | 1.22 | 1.31 | 0.821 | 1.03 | 0.963
11 | EBC-1 | 0.698 | 0.603 | 0.69 | 0.782 | 0.693 | 0.0925 | 0.117 | 0.107 | 0.17 | 0.182 | 0.202 | 0.147 | 0.127 | 0.658 | 0.421 | 0.409 | 0.245 | 0.153
12 | EKVX | 0.854 | 0.761 | 0.904 | 0.813 | 0.563 | 0.51 | 0.806 | 0.537 | 0.977 | 0.892 | 0.964 | 1.07 | 0.604 | 0.956 | 1.08 | 1.04 | 0.994 | 0.729
13 | EMC-BAC-2 | 0.509 | 0.478 | 0.498 | 0.492 | 0.531 | 0.958 | 0.977 | 0.467 | 0.726 | 0.76 | 0.732 | 0.571 | 0.388 | 1.06 | 1.05 | 1.09 | 1.18 | 0.869
14 | EPLC-272H | 0.969 | 0.526 | 1.19 | 0.854 | 0.49 | 0.756 | 0.639 | 0.247 | 0.904 | 0.904 | 0.86 | 0.751 | 0.582 | 0.729 | 1 | 0.882 | 0.627 | 0.384
15 | H3255 | 0.516 | 0.518 | 0.594 | 0.509 | 0.27 | 0.882 | 0.804 | 0.631 | 0.76 | 0.845 | 0.387 | 0.621 | 0.269 | 0.743 | 0.736 | 0.32 | 0.541 | 0.186
16 | HARA | 0.624 | 0.821 | 0.681 | 0.867 | 0.883 | 0.886 | 0.619 | 0.517 | 0.904 | 0.866 | 0.89 | 0.799 | 0.395 | 1.21 | 1.09 | 1.08 | 0.918 | 0.709
17 | HCC-15 | 0.72 | 0.677 | 0.782 | 0.713 | 0.722 | 1.09 | 0.951 | 0.453 | 0.804 | 0.836 | 0.798 | 0.843 | 0.715 | 1.03 | 1.08 | 1.02 | 1 | 0.851
18 | HCC-44 | 0.914 | 0.944 | 0.948 | 0.973 | 1 |  |  |  | 0.661 | 0.712 | 0.752 | 0.779 | 0.748 | 0.798 | 1.05 | 0.829 | 0.999 | 0.88
